In brackets after ≈: the same amount, converted by molar mass.
Tests used:
[1] = test system: protein synthesis (E. coli extract-based cell-free protein expression system); experiment: In vitro transcription/translation assay (S30 T7 cell-free system, Renilla luciferase); type: biochemical; conditions: E. coli S30 T7 cell-free transcription/translation, 1 h, 37 °C; read-out: IC50 Inhib. of Protein Synthesis
Experimental: The influence of hybrids OBP-4 and OBP-5 against protein synthesis was confirmed by the S30 T7 High-Yield Protein Expression System (Promega Co., Ltd.). The S30 T7 High-Yield Protein Expression System is an E. coli extract-based cell-free protein expression system, which can effectively transcribe and translate DNA fragments with a T7 promoter. The reaction system containing 1 μg plasmid DNA, 20 μL S30 Premix Plus and 18 μL T7 S30 Extract with or without compounds was incubated for 1 h at 37 °C with a rotational speed of 250 rpm, and terminated by cooling in ice for 5 min in a 96-well white multi-well plate. Then, 1.25 μL of the translation reaction mixture was added to 48.75 μL of Renilla Luciferase Assay Lysis Buffer, and mixed with 50 μL of Renilla Luciferase Assay Reagent (cat no. E2810; Promega). Renilla luciferase activity was measured on EnSpire® Multimode Plate Reader (PerkinElmer, Waltham, MA, USA). […] LZD was used as a positive control.

VRE (13B330) = experiment: MIC, broth microdilution (CLSI), clinical isolate; type: cell-based, vancomycin-resistant enterococcus; conditions: Enterococcus
Text: 6 standard strains and 3 clinical isolates were used to the preliminary evaluation of in vitro antibacterial activities of oxazolidinone-fluoroquinolone hybrids. For the further evaluation of hybrids OBP-4 and OBP-5, 263 clinical isolates including S. aureus (46), S. haemolyticus(32), S. epidermidis (10), E. faecalis (72), E. faecium (47), S. pneumoniae (13), H. parasuis (34), S. suis (9), and 8 resistant strains including MRSA, MRSE, CIP-resistant S. aureus and S. haemolyticus, VAN and quinolone-resistant S. pneumoniae, LZD-resistant E. faecalis, LZD/VAN and quinolone-resistant E. faecium were collected and tested.
(§1) Susceptibility testing of oxazolidinone-fluoroquinolone hybrids against various bacteria was performed by the broth microdilution method as outlined by the Clinical and Laboratory Standards Institute (CLSI). Three types of media, including cation-adjusted Mueller Hinton broth, Haemophilus Test Medium and cation-adjusted Mueller Hinton broth that contained 3%–5% lysed horse blood, were used to culture the corresponding bacteria. All compounds including comparator drugs were dissolved in an appropriate solvent at a concentration of 2.048 mg/mL and then serially diluted two-fold to provide the required concentrations. A final inoculum of 5 × 10^5 CFU/mL was used and plates were read after incubation for 16–24 h at 35 °C. […] Standard quality control strains (ATCC) were included throughout. Each determination was repeated in triplicate.

[2] = test system: E. faecalis (72) clinical isolates; experiment: Susceptibility of clinical isolates (MIC); type: cell-based, Enterococcus faecalis
Experimental: as §1, with “All compounds including comparator drugs were dissolved in an appropriate solvent at a concentration of 2.048 mg/mL and then serially diluted two-fold to provide the required concentrations.” left out

[3] = test system: H. parasuis (34) clinical isolates; experiment: Susceptibility of clinical isolates (MIC); type: cell-based, Haemophilus parasuis; conditions: Glaesserella parasuis, H. parasuis, 34 clinical isolates
Experimental: as §1, with “All compounds including comparator drugs were dissolved in an appropriate solvent at a concentration of 2.048 mg/mL and then serially diluted two-fold to provide the required concentrations.” left out

[4] = test system: S. suis (9) clinical isolates; experiment: Susceptibility of clinical isolates (MIC); type: cell-based, Streptococcus suis; conditions: Streptococcus suis, S. suis, 9 clinical isolates
Experimental: as §1, with “All compounds including comparator drugs were dissolved in an appropriate solvent at a concentration of 2.048 mg/mL and then serially diluted two-fold to provide the required concentrations.” left out

[5] = E. faecalis clinical isolates, CLSI criteria
[6] = Enterococcus faecalis, E. faecalis, 72 clinical isolates

CC(=O)NC[C@H]1CN(c2ccc(N3CCOCC3)c(F)c2)C(=O)O1 [LZD, linezolid, reference compound]
IC50 [1]: 5 µM
MIC (VRE (13B330)): 2 µg/mL (≈ 5.93 µM)
CLSI %R (resistant) [2, 5]: 2.7%
CLSI %S (susceptible) [2, 5]: 97.3%
MIC Range ([2]; E. faecalis, 72 clinical isolates): 0.5 to 8 µg/mL
MIC50 [2, 6]: 2 µg/mL (≈ 5.93 µM)
MIC90 [2, 6]: 2 µg/mL (≈ 5.93 µM)
MIC50 ([3]; read-out: MIC50): 16 µg/mL (≈ 47.4 µM)
MIC90 ([3]; read-out: MIC90): > 32 µg/mL
MIC50 ([4]; read-out: MIC50): 0.5 µg/mL (≈ 1.48 µM)
MIC90 ([4]; read-out: MIC90): 4 µg/mL (≈ 11.9 µM)
MIC ([4]; read-out: MIC Range): 0.5 to 4 µg/mL (≈ 1.48 to 11.9 µM)

— publication PMC6514978, “Synthesis, Antibacterial Activities, Mode of Action and Acute Toxicity Studies of New Oxazolidinone-Fluoroquinolone Hybrids” (Molecules, 2019)
